One may read the EC50 as the concentration needed to bring the measured effect to its halfway point. Read a low EC50 as higher potency in that assay.

The experiment addresses T1, human P2X2 receptor (hP2X2R) (Homo sapiens, UniProt Q9UBL9).
T1 construct: gene P2RX2; full-length wild-type
T1 sequence (Q9UBL9 1-471): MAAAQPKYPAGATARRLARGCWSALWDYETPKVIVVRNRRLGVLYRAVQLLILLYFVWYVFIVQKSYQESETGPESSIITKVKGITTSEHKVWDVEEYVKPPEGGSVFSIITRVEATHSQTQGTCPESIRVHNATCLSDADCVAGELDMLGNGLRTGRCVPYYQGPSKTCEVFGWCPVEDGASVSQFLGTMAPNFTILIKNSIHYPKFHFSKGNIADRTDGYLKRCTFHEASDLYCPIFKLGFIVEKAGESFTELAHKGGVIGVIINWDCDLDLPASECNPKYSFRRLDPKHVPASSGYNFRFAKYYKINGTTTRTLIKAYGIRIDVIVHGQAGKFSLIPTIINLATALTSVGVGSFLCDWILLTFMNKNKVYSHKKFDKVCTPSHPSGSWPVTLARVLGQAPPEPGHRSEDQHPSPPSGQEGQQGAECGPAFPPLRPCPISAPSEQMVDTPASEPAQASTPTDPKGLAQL
Description: cryo-EM structures of ATP-bound homotrimer ([…] and […] Å); EC50 by two-electrode voltage clamp in Xenopus oocytes (divalent-free). It is filed as cell-based. Background: Two-electrode voltage clamp holds a large cell at a set potential and records current.

Each structure is given as a SMILES string.

Turning to `Nc1ncnc2c1ncn2[C@@H]1O[C@H](COP(=O)(O)OP(=O)(O)OP(=O)(O)O)[C@@H](O)[C@H]1O` [ATP], the EC50 came out at 156 ± 96 nM.
